Source: patent publication US20230338495A1, “Vaccine Compositions and Antibodies For Lyme Disease” (priority 2020, published 2023)

How the values were obtained:
[1] = system: IgM in Lyme Disease patient sera; test: MSD-ECL assay with Biotin-BBGL-1 / Biotin-BBGL-2 coated streptavidin plates, anti-IgM detection; type: binding, human; details: biotinylated antigen coated at 1 ug/mL; for IgM titer, EU: NC= 189.75
Description: (§1) A Meso Scale Discovery Electrochemiluminescence (MSD-ECL) assay was developed using Biotin-BBGL-1 and Biotin-BBGL-2 to measure antibody titers in Lyme Disease patient samples. The assay involved first blocking MSD streptavidin gold plate with 4% BGG (bovine gamma globulin in PBS), washing the plates with PBS and the coating Biotin-BBGL-1 and Biotin-BBGL-2 at concentration of 4 ug/mL (diluted in 4% BGG) for coating for IgG side of plate and at concentration of 1 ug/mL (diluted in 4% BGG) for coating for IgM side of plate. Serum samples (diluted 1:5) were then added to each well, incubated, and washed.
(§2) Detection reagents (Sulfo tag anti-lgG Fc or anti-IgM) were then added, incubated, and washed, followed by reading the plates on a Sector Imager (Meso Scale Diagnostic, Rockville, MD USA).

[2] = system: IgG in Lyme Disease patient sera; test: MSD-ECL assay with Biotin-BBGL-1 / Biotin-BBGL-2 coated streptavidin plates, anti-IgG Fc detection; type: binding, human; details: biotinylated antigen coated at 4 ug/mL; for IgG titer, EU: NC= 166.75
Description: as §1, §2

[3] = system: Borrelia burgdorferi; test: In vitro neutralization of Borrelia burgdorferi by Day 30 serum samples from immunized mice; type: in vivo; details: Day 30 sera of C3H/HeJ mice, n=6 per group; dosing at day 1 (77 µg/mouse per immunization, 10 µg QS-21/mouse)
Description: A pilot study in mice was conducted to determine the safety and in vitro efficacy of the BBGL-1 and BBGL-2 liposome vaccines in the absence or presence of the adjuvant QS-21 (Desert King International, San Diego, CA USA). Eighty-four (42 male, 42 female) C3H/HeJ mice (The Jackson Laboratory, Bar Harbor, ME USA), at approximately 7 weeks were used in the study, which is outlined in Table 17a and 17b.
7 Group of Mice (6 male and 6 female in each group) were given either 1) adjuvant alone, 2) Immunization A, 3) Adjuvant + Immunization A, 4) Immunization B, 5) Adjuvant + Immunization B, 6) Immunization A + Immunization B, or 7) Adjuvant + Immunization A + Immunization B
Immunization A and Immunization B were administered at 77 µg/mouse doses at day 1 and Day 30. Groups receiving adjuvant received 10 µg QS-21/mouse at Day 1 and Day 30.
Whole blood was collected into serum separator tubes at baseline and days 7, 15, 30, 45, and 60. Blood was allowed to clot and centrifuged at 1500xg and 10° C. for 15 minutes. Serum was aliquoted and stored at -30° C.
Serum aliquots were evaluated after 30 days, for neutralizing antibodies against Borrelia burgdorferi, B. mayonii, B. afzelii, and B. garinii using laboratory developed assays.
In vitro neutralization of Borrelia burgdorferi from Day 30 assessed with half of the mouse serum samples (n=6 per group) are shown in FIG. 7a.

Row | Molecule | IgM titer, Fold/Baseline ([1]; patient L1 serum diluted 1:5) [Fold/Baseline] | IgM titer, EU ([1]; patient L1 serum diluted 1:5) [EU] | IgM titer, Fold/Baseline ([1]; patient L2 serum diluted 1:5) [Fold/Baseline] | IgM titer, EU ([1]; patient L2 serum diluted 1:5) [EU] | IgM titer, Fold/Baseline ([1]; patient L3 serum diluted 1:5) [Fold/Baseline] | IgM titer, EU ([1]; patient L3 serum diluted 1:5) [EU] | IgG titer, Fold/Baseline ([2]; patient L1 serum diluted 1:5) [Fold/Baseline] | IgG titer, EU ([2]; patient L1 serum diluted 1:5) [EU] | IgG titer, Fold/Baseline ([2]; patient L2 serum diluted 1:5) [Fold/Baseline] | IgG titer, EU ([2]; patient L2 serum diluted 1:5) [EU] | IgG titer, Fold/Baseline ([2]; patient L3 serum diluted 1:5) [Fold/Baseline] | IgG titer, EU ([2]; patient L3 serum diluted 1:5) [EU] | neutralization activity [3] [%]
1 | CCCCCCCCCCCCCCCC(=O)OC[C@H]1O[C@@H](O[C@H]2CC[C@@]3(C)C(=CC[C@H]4[C@@H]5CC[C@H]([C@H](C)CCCC(C)C)[C@@]5(C)CC[C@@H]43)C2)[C@H](O)[C@@H](O)[C@H]1O [BBGL1, cholesteryl 6-O-palmitoyl-β-D-galactopyranoside] | 21 | 4055.50 | 2 | 390.00 | 7 | 1338.00 | 1.3 | 218.50 | 0.9 | 143.50 | 1.0 | 166.00 | –
2 | QS-21 | – | – | – | – | – | – | – | – | – | – | – | – | > 15
3 | CCCCCCCC/C=C\CCCCCCCC(=O)OC[C@H](CO[C@H]1O[C@H](CO)[C@H](O)[C@H](O)[C@H]1O)OC(=O)CCCCCCCCCCCCCCC [BBGL2, 1-oleoyl-2-palmitoyl-3-(α-D-galactosyl)-sn-glycerol] | 18 | 3458.00 | 2 | 344.50 | 6 | 1229.50 | 16 | 2720.00 | 4 | 619.50 | 1.1 | 178.00 | –
